We go through two compounds from publication PMC12631912, “A Multifunctional Molecular Probe for Multimodal Imaging‐Guided Potent Photothermal/Photodynamic Therapy of Endometriosis” (Advanced Science, 2025).

For data set [1] the following is noted: free ICG; cited from earlier work.
A short description of data set [2]: UV absorption and fluorescence emission spectra. The format is physicochemical. Particulars: in PBS, cRGD-ILD C ICG = 10 µg mL^−1, ICG 5 µg/mL. How it is done:
The ^1H NMR spectra were conducted utilizing a Varian Unity 400 MHz Spectrometer ([…]) in a variety of deuterated solvents. ESI‐MS were obtained with a Thermo Scientific LTQ XL mass spectrometer (Thermo, USA). UV absorption spectra were measured by a Unico UV‐2000 UV–vis Spectrophotometer (Shanghai, China). Photoluminescence excitation and emission spectra were recorded using an FSP920‐combined Time Resolved and Steady State Fluorescence Spectrometer (Edinburgh, UK), equipped with a 450‐W xenon lamp. Both the UV and fluorescence spectrophotometers were scanned within the wavelength range of 650–850 nm.

On the set-up of data set [3]: method as in earlier work. Particulars: clinically approved contrast agent; cited from earlier work.

Regarding `CC1(C)C(/C=C/C=C/C=C/C=C2\N(CCCCS(=O)(=O)O)c3ccc4ccccc4c3C2(C)C)=[N+](CCCCS(=O)(=O)[O-])c2ccc3ccccc3c21` [ICG, indocyanine green, reference compound], the “Photothermal conversion efficiency (PCE)” value in data set [1] is 15.8%. Further, the fluorescence emission peak in data set [2] (λex = 755 nm) is 764 nm. For the same compound, the absorption peak in data set [2] is 755 nm.
For the compound `CNC[C@H](O)[C@@H](O)[C@H](O)[C@H](O)CO.CNC[C@H](O)[C@@H](O)[C@H](O)[C@H](O)CO.O=C([O-])CN(CCN(CC(=O)[O-])CC(=O)O)CCN(CC(=O)[O-])CC(=O)O.[Gd+3]` [Magnevist], in data set [3], the “T 1 relaxivities (r 1)” value was 5.35 mM⁻¹ s⁻¹.
